The record followed here is ChEMBL document CHEMBL1909046, “DrugMatrix in vitro pharmacology data”.

The pIC50 is −log10 of the IC50, conventionally taken in molar units. What is called pKi is the Ki on a negative log10 scale, so that one unit is a factor of ten.

Series [1] deals with T1, Alpha-2A adrenergic receptor (Homo sapiens, UniProt P08913).
T1 sequence (P08913 whole entry): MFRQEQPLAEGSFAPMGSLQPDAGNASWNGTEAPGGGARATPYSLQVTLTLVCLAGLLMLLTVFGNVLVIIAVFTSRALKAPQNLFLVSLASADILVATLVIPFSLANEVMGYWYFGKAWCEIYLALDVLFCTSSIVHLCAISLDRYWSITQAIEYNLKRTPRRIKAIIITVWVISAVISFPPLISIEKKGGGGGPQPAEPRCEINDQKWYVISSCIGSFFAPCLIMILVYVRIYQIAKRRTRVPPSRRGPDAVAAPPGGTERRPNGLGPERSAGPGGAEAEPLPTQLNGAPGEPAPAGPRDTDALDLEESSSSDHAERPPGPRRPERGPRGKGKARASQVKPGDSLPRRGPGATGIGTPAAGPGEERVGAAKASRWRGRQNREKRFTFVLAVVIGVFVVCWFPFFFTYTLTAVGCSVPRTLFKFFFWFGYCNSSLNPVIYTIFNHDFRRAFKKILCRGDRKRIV
The series is classed as cell membranes, Sf9, Membrane.

For series [2], the target named is Prostaglandin G/H synthase 1 (Homo sapiens, UniProt P23219). The series can be described thus: biochemical. The series is classed as tissue-based, Platelet. To be noted: platelet.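 Also: inhibition of COX-1 enzyme activity, with arachidonic acid supplied as substrate; in other assays of this panel Not Active means under 50% inhibition at 10 µM.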
Chain of Prostaglandin G/H synthase 1 (P23219 whole entry): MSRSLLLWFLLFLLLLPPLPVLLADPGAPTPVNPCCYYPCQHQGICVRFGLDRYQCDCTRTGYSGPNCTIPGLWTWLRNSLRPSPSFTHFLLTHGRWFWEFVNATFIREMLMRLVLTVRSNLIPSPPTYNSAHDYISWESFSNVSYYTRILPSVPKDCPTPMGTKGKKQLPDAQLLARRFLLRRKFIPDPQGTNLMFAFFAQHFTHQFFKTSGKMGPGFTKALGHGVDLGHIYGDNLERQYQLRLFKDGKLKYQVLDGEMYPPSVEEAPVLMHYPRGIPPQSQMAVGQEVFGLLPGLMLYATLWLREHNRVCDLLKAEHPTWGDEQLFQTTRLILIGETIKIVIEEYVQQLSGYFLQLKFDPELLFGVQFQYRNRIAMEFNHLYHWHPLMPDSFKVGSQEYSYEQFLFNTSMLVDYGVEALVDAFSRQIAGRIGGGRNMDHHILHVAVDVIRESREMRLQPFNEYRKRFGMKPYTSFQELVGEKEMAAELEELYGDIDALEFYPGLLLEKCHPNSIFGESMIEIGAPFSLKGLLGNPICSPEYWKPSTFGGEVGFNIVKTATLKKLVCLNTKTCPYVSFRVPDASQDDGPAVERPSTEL
Series [3] can be described thus: DRUGMATRIX: Glutamate, AMPA radioligand binding (ligand: [3H] AMPA). The class given is cell membranes, Rattus norvegicus, Wistar, Cerebral cortex, Membrane. To be noted: Not Active = under 50% inhibition at 10 µM.
Series [4] has as its target T2, Muscarinic acetylcholine receptor M5 (Homo sapiens, UniProt P08912). Also: in other assays of this panel Not Active means under 50% inhibition at 10 µM.
T2 sequence (P08912 whole entry): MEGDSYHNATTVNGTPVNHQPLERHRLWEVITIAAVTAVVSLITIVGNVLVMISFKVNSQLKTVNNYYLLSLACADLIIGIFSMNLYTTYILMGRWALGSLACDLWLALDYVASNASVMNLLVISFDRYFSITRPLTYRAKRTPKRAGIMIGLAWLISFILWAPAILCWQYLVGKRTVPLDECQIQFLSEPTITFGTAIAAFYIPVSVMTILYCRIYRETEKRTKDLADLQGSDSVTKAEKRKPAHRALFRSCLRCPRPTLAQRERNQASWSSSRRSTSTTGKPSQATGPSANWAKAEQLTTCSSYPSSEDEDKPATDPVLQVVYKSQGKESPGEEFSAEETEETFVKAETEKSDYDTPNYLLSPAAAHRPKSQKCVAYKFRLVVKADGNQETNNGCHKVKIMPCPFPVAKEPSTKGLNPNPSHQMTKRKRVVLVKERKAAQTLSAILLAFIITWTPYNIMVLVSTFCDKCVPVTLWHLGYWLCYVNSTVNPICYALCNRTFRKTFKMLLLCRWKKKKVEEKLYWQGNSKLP
The series is classed as cell membranes, CHO-K1, Membrane. To be noted: cho-k1.

The nature of series [5]: DRUGMATRIX: Purinergic P2X radioligand binding (ligand: [3H] alpha, beta-Methylene-ATP). The class given is cell membranes, Oryctolagus cuniculus, New Zealand albino, Urinary bladder, Membrane. To be noted: Not Active = under 50% inhibition at 10 µM.
For series [6], the target named is Voltage-gated inwardly rectifying potassium channel KCNH2 (Homo sapiens, UniProt Q12809). To be noted: hek293. Also: in other assays of this panel Not Active means under 50% inhibition at 10 µM.
Chain of Voltage-gated inwardly rectifying potassium channel KCNH2 (Q12809 whole entry): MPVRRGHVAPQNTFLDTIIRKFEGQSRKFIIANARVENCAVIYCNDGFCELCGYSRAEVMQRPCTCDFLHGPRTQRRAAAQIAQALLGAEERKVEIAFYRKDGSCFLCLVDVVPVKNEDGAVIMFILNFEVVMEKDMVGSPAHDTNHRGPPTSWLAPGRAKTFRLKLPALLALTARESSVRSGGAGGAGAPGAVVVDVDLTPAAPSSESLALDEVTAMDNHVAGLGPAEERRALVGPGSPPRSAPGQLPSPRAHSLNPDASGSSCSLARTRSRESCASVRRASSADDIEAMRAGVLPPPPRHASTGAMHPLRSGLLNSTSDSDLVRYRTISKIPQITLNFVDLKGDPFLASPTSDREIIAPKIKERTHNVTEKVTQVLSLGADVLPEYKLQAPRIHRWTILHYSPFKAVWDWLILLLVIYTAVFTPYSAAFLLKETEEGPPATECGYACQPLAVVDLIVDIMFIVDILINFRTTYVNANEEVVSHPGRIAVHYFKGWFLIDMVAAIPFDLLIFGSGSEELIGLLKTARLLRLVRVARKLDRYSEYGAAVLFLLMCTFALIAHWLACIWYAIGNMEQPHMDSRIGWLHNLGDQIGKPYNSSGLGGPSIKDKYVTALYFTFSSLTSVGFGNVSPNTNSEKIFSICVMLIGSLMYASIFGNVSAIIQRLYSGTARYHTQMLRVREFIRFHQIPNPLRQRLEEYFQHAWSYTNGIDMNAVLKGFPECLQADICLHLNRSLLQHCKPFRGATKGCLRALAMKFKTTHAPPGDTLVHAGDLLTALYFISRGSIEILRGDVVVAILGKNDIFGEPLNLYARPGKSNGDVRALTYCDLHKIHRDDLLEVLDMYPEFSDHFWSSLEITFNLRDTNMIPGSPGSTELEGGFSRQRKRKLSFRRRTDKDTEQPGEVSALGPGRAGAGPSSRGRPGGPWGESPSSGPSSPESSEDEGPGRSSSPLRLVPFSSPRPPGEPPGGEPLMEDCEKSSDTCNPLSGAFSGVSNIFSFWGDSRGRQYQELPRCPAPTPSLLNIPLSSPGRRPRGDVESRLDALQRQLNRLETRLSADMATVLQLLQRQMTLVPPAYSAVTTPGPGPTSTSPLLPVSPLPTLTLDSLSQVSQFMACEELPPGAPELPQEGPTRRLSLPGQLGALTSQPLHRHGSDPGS

The structures appear in SMILES notation. pIC50, pKi: −log10 of the molar value.

With `Cc1c(C)c2c(c(C)c1O)CC[C@@](C)(CCC[C@H](C)CCC[C@H](C)CCCC(C)C)O2` [ALPHA-TOCOPHEROL], the IC50 result in series [1] (sf9), in series [2], in series [3], in series [4], in series [5] and in series [6] was “Not Active” in each case. Further, the Ki result in series [3], in series [5] and in series [6] was “Not Active” throughout.
In the case of `CN(C)c1nc(N(C)C)nc(N(C)C)n1` [ALTRETAMINE], the IC50 entry in series [1] (sf9), in series [2], in series [3], in series [4], in series [5] and in series [6] was “Not Active” in each case. Moreover, the Ki entry in series [3], in series [5] and in series [6] was “Not Active” in each case.
For the compound `Nc1c(Br)cc(Br)cc1CN[C@H]1CC[C@H](O)CC1` [AMBROXOL], the IC50 entry in series [1] (sf9), in series [2], in series [3], in series [4], in series [5] and in series [6] was “Not Active” throughout. For the same compound, the Ki entry in series [3], in series [5] and in series [6] was “Not Active” in each case.
Take `NCCCCCC(=O)O` [AMINOCAPROIC ACID]: the IC50 entry in series [1] (sf9), in series [2], in series [3], in series [4], in series [5] and in series [6] was “Not Active” throughout. Moreover, the Ki entry in series [3], in series [5] and in series [6] was “Not Active” each time.
As to `CCC1(c2ccc(N)cc2)CCC(=O)NC1=O` (stereo not given) [AMINOGLUTETHIMIDE], the IC50 result in series [1] (sf9), in series [2], in series [3], in series [4], in series [5] and in series [6] was “Not Active” throughout. The Ki result in series [3], in series [5] and in series [6] was “Not Active” throughout.
For the compound `COc1ccc(C[C@H]2NC[C@H](O)[C@H]2OC(C)=O)cc1` [ANISOMYCIN], the IC50 entry in series [1] (sf9), in series [2], in series [3], in series [4], in series [5] and in series [6] was “Not Active” in each case. The Ki result in series [1] (sf9), in series [2], in series [3], in series [4], in series [5] and in series [6] was “Not Active” in each case.
On to `Nc1ncn([C@@H]2O[C@H](CO)[C@@H](O)[C@H]2O)c(=O)n1` [AZACITIDINE], for which the IC50 result in series [1] (sf9), in series [2], in series [3], in series [4], in series [5] and in series [6] was “Not Active” in each case. Besides, the Ki result in series [3], in series [5] and in series [6] was “Not Active” in each case.
Take `CN(C)C(=O)Oc1cc(OC(=O)N(C)C)cc(C(O)CNC(C)(C)C)c1` (stereo not given) [BAMBUTEROL]: the IC50 result in series [1] (sf9), in series [2], in series [3], in series [4], in series [5] and in series [6] was “Not Active” in each case. Also, the Ki result in series [3], in series [5] and in series [6] was “Not Active” throughout.
Take `c1ccc2c(c1)c1cccc3ccc4cccc2c4c31` [BENZO[E]PYRENE]: the IC50 entry in series [1] (sf9), in series [2], in series [3], in series [4], in series [5] and in series [6] was “Not Active” in each case. The Ki result in series [3], in series [5] and in series [6] was “Not Active” throughout.
With `CNCCc1ccccn1` [BETAHISTINE], the IC50 result in series [1] (sf9), in series [2], in series [3], in series [4], in series [5] and in series [6] was “Not Active” each time. For the same compound, the Ki result in series [3], in series [5] and in series [6] was “Not Active” each time.
Take `CC(C)C(Br)C(=O)NC(N)=O` (stereo not given) [BROMISOVALUM]: the IC50 entry in series [1] (sf9), in series [2], in series [3], in series [4], in series [5] and in series [6] was “Not Active” in each case. Besides, the Ki result in series [3], in series [5] and in series [6] was “Not Active” in each case.
As for `CCCC1O[C@@H]2C[C@H]3[C@@H]4CCC5=CC(=O)C=C[C@]5(C)[C@H]4[C@@H](O)C[C@]3(C)[C@]2(C(=O)CO)O1` (stereo not given in full) [BUDESONIDE], the IC50 result in series [1] (sf9), in series [2], in series [3], in series [4], in series [5] and in series [6] was “Not Active” throughout. Also, the Ki entry in series [3], in series [5] and in series [6] was “Not Active” throughout.
`CN(Cc1ccc(C(C)(C)C)cc1)Cc1cccc2ccccc12` [BUTENAFINE]: in series [1] (read-out: IC50), the pIC50 was 5.44. Also, the pKi in series [1] (read-out: Ki) is 5.86. For the same compound, the IC50 entry in series [2], in series [3], in series [4], in series [5] and in series [6] was “Not Active” throughout. In addition, the Ki result in series [3], in series [5] and in series [6] was “Not Active” in each case.
With `C[C@H](CS)C(=O)N1CCC[C@H]1C(=O)O` [CAPTOPRIL], the IC50 result in series [1] (sf9), in series [2], in series [3], in series [4], in series [5] and in series [6] was “Not Active” throughout. Further, the Ki result in series [3], in series [5] and in series [6] was “Not Active” throughout.
Regarding `O=C(O)CCCc1ccc(N(CCCl)CCCl)cc1` [CHLORAMBUCIL], the IC50 result in series [1] (sf9), in series [2], in series [3], in series [4], in series [5] and in series [6] was “Not Active” throughout. In addition, the Ki entry in series [3], in series [5] and in series [6] was “Not Active” throughout.
`C[C@H](CCC(=O)O)[C@H]1CC[C@H]2[C@@H]3[C@H](O)C[C@@H]4C[C@H](O)CC[C@]4(C)[C@H]3C[C@H](O)[C@]12C` [CHOLIC ACID]: the IC50 entry in series [1] (sf9), in series [2], in series [3], in series [4], in series [5] and in series [6] was “Not Active” in each case. Besides, the Ki result in series [3], in series [5] and in series [6] was “Not Active” each time.
`Cc1cc(C2CCCCC2)n(O)c(=O)c1` [CICLOPIROX]: the IC50 entry in series [1] (sf9), in series [2], in series [3], in series [4], in series [5] and in series [6] was “Not Active” throughout. The Ki result in series [3], in series [5] and in series [6] was “Not Active” each time.
Take `CC1=C2C(=CO[C@H](C)[C@H]2C)C(O)=C(C(=O)O)C1=O` [CITRININ]: the IC50 result in series [1] (sf9), in series [2], in series [3], in series [4], in series [5] and in series [6] was “Not Active” each time. For the same compound, the Ki entry in series [3], in series [5] and in series [6] was “Not Active” throughout.
Take `CC(C)(C)NCC(O)c1cc(Cl)c(N)c(Cl)c1` (stereo not given) [CLENBUTEROL]: the IC50 result in series [1] (sf9), in series [2], in series [3], in series [4], in series [5] and in series [6] was “Not Active” each time. The Ki result in series [3], in series [5] and in series [6] was “Not Active” each time.
